pIC50: −log10 of the molar value.
How the values were obtained:
Format in all cases: biochemical, Ratten
[1] = target: T1, Synaptosomen-Aufnahme von Serotonin (Rattus norvegicus, UniProt P31652); experiment: Inhibition of serotonin uptake in rat brain synaptosomes (cortex, 3H-serotonin)
T1 construct: Durch differentielle Zentrifugation wurden Synaptosomen erhalten; from tissue; host or cells: rat brain cortex synaptosomes
Text: (§1) Hemmung der Neurotransmitter-Aufnahme in Rattenhirn-Synaptosomen
(§2) Hippocampus und Cortex aus Rattenhirn wurden präpariert und in 0,32 M Sucrose-Lösung homogenisiert. Durch differentielle Zentrifugation wurden Synaptosomen erhalten, die in Pufferlösung suspendiert wurden. Die Synaptosomen sind in der Lage, aus dem umgebenden Medium zugefügte Neurotransmittersubstanzen (z.B. Noradrenalin oder Serotonin) aktiv aufzunehmen. Dieser Vorgang ist durch uptake-Hemmer konzentrationsabhängig antagonisierbar. Die Synaptosomen wurden mit den Testsubstanzen in verschiedenen Konzentrationen versetzt und anschließend mit ³H-Noradrenalin (Hippocampus) bzw. ³H-Serotonin (Cortex) bei 37°C inkubiert. Die Substratkonzentration betrug ca. 10 nM. Nach Stoppen der Aufnahme durch Verdünnen mit eisgekühlter Pufferlösung wurden die Synaptosomen abzentrifugiert und die ³H-Aktivität im Sediment gemessen. Der Blindwert wird durch Inkubation bei 0°C ermittelt.
(§3) Aus den verschiedenen Inhibitor-Konzentrationen gegen Kontrolle ermittelten Hemmwerten wurde durch lineare Regression nach logit-log-Transformation die mittlere Hemmkonzentration IC₅₀ berechnet.

Monoaminoxidase Typ A = target: T2, Monoaminoxidase Typ A (Rattus norvegicus, UniProt P21396); experiment: Inhibition of monoamine oxidase type A in rat brain homogenate (14C-tryptamine)
T2 construct: Die Bestimmung der Monoaminoxidase erfolgte in verdünntem Rattenhirnhomogenat; from tissue; host or cells: rat brain homogenate
T2 sequence (P21396 1-526): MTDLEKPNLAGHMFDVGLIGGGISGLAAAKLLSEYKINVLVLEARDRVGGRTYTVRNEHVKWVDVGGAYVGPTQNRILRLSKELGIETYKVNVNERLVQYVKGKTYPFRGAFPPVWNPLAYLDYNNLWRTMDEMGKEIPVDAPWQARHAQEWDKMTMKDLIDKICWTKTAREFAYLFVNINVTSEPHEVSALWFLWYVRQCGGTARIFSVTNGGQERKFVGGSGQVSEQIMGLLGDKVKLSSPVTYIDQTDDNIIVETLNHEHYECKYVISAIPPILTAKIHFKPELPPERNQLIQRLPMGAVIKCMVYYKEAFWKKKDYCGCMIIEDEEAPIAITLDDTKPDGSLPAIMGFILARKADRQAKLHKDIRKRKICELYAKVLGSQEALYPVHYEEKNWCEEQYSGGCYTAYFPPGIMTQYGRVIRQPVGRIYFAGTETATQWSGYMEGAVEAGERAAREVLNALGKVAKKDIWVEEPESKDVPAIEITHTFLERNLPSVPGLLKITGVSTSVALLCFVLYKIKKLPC
Experimental: (§4) Hemmung der Monoaminoxidase
(§5) Die Bestimmung der Monoaminoxidase erfolgte in verdünntem Rattenhirnhomogenat dem 1. unterschiedliche Konzentrationen der zu prüfenden Testsubstanzen und 2. für die Bestimmung der Monoaminoxidase Typ A ¹⁴C-Tryptamin in einer Konzentration von 0,4 µmol, zur Bestimmung der Monoaminoxidase Typ B ¹⁴C-Phenylethylamin in einer Konzentration von 0,25 µmol zugesetzt wurde. Dieser Ansatz wurde 20 Minuten bei 37°C inkubiert. Die Reaktion wird durch 0,1 n HCl gestoppt und die Reaktionsprodukte nach Extraktion in Toluol-Szintillator (PPO + POPOP in Toluol) bestimmt. Der Blindwert wird in analogen Ansätzen mit einer Inkubationszeit von t = 0 Minuten bestimmt.
(§6) Aus den bei den verschiedenen Inhibitorkonzentrationen gegen die Kontrolle ermittelten Hemmwerten wurde durch lineare Regression nach logit-log-Transformation die mittlere Hemmkonzentration (IC₅₀) berechnet.

Monoaminoxidase Typ B = target: T3, Monoaminoxidase Typ B (Rattus norvegicus, UniProt P19643); experiment: Inhibition of monoamine oxidase type B in rat brain homogenate (14C-phenylethylamine)
T3 construct: Die Bestimmung der Monoaminoxidase erfolgte in verdünntem Rattenhirnhomogenat; from tissue; host or cells: rat brain homogenate
T3 sequence (P19643 1-520): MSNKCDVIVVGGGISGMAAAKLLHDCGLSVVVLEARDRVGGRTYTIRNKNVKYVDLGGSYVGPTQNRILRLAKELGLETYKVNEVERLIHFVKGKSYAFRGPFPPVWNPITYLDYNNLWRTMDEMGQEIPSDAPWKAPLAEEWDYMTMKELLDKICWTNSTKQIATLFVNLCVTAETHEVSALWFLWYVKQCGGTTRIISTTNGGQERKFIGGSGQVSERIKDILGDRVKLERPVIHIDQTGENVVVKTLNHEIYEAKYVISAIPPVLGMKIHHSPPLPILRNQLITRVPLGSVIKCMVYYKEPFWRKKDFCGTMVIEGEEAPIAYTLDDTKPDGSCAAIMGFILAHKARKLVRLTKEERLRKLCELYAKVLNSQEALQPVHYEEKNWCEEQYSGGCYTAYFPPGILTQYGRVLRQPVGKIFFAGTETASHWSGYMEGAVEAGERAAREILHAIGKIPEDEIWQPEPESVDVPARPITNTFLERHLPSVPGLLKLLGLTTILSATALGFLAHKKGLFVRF
Experimental: as §4, §5, §6

[2] = target: T4, Synaptosomen-Aufnahme von Noradrenalin (Rattus norvegicus, UniProt Q63380); experiment: Inhibition of noradrenaline uptake in rat brain synaptosomes (hippocampus, 3H-noradrenaline)
T4 construct: Durch differentielle Zentrifugation wurden Synaptosomen erhalten; from tissue; host or cells: rat brain hippocampus synaptosomes
Text: as §1, §2, §3

[3] = Quotient IC50 Referenzverbindung / IC50 Beispielverbindung

T4 sequence (Q63380 1-617): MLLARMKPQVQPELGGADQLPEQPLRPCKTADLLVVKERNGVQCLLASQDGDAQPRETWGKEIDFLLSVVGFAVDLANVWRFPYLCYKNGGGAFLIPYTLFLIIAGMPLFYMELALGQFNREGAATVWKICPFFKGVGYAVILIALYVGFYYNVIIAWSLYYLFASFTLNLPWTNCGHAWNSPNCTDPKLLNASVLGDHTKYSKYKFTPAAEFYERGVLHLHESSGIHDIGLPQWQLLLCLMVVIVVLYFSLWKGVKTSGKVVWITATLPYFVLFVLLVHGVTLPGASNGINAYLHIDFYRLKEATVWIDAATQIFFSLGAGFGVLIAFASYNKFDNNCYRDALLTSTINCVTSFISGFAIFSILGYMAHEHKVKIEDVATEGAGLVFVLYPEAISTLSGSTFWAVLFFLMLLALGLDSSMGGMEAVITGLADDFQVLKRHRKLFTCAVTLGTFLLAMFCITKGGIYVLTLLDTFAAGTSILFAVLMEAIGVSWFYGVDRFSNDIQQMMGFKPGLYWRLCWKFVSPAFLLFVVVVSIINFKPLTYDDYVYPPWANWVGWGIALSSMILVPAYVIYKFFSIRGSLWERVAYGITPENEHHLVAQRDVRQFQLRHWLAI
T1 sequence (P31652 whole entry): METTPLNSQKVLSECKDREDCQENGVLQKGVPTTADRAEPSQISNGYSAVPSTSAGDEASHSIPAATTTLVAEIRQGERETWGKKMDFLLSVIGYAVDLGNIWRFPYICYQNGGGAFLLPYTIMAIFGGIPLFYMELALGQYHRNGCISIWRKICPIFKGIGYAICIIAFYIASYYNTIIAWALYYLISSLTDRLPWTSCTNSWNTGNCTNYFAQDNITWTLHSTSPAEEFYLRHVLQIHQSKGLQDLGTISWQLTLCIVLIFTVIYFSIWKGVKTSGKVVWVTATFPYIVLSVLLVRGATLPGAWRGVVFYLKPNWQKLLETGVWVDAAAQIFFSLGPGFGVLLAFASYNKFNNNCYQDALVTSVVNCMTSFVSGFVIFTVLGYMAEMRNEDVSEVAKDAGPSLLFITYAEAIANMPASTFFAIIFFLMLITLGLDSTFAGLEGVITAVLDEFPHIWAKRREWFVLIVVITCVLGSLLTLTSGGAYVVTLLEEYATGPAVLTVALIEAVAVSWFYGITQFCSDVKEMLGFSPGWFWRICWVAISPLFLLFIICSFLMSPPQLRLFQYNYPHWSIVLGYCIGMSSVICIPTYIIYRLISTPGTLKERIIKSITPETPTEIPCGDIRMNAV

In the case of Cc1cc(-n2ccc(=N)cn2)ccc1Br [Beispiel 46, 1-(3-Methyl-4-bromphenyl)-4-(1H)-pyridazinimin-sulfat], the “Hemmung der Synaptosomen-Aufnahme von Serotonin r.W. (relative Wirksamkeit)” value [1, 3] was 103, the pIC50 ([1]; rat cortex synaptosomes, 3H-Serotonin ca. 10 nM, 37°C, read-out: Hemmung der Synaptosomen-Aufnahme von Serotonin IC50) was 8.15 and the “Hemmung der Monoaminoxidase Typ A r.W. (relative Wirksamkeit)” value (Monoaminoxidase Typ A; [3]) was 4.2. The pIC50 (Monoaminoxidase Typ A; rat brain homogenate, 14C-Tryptamin, 20 min 37°C, read-out: Hemmung der Monoaminoxidase Typ A IC50) was 6.00, the “Hemmung der Monoaminoxidase Typ B r.W. (relative Wirksamkeit)” value (Monoaminoxidase Typ B; [3]) was 12.2 and the pIC50 (Monoaminoxidase Typ B; rat brain homogenate, 14C-Phenylethylamin, 20 min 37°C, read-out: Hemmung der Monoaminoxidase Typ B IC50) was 5.40. For the same compound, the “Hemmung der Synaptosomen-Aufnahme von Noradrenalin r.W. (relative Wirksamkeit)” value [2, 3] was 3.1 and the pIC50 ([2]; rat hippocampus synaptosomes, 3H-Noradrenalin ca. 10 nM, 37°C, read-out: Hemmung der Synaptosomen-Aufnahme von Noradrenalin IC50) was 8.00.
